The values that follow come from US9833497B2, “Human originated EGF domain proteins and use of the same” (CHENGDU SOURCEBIO LIMITED-LIABILITY COMPANY, priority 2013, dated 2017).

Holding throughout (type): cell-based
Assay [1] concerns E. coli DH5α. Description: Antibacterial activity: MIC and growth curve against E. coli DH5α in 96-well plate. The conditions noted are these: minimal inhibitory concentration against E. coli DH5α; 96-well plate, 5×10^5 CFU/mL, 37° C., judged after 8 h. In short, it runs like this: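 MIC taken as lowest protein level with no bacterial growth, tracked by A600 every 30 min during 37 °C, 175 rpm culture. Two-fold protein series 50-12.5 μg/mL final, triplicate wells, against 5×10^5 CFU/mL of LB-washed mid-log cells.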

Assay [2] concerns E. coli BL21. Description: MIC against Gram-negative bacteria: E. coli BL21. The conditions noted are these: 5×10^5 CFU/mL. In short, it runs like this: (§1)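 LB broth cultures at McFarland 0.5, spun down, resuspended, diluted to 5×10^5 CFU/mL final. Two-fold serial dilutions of purified human EGF domain proteins, triplicate. 37° C, 175 rpm shaking. Endpoint: no visible growth.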
The test system of assay [3] is Pseudomonas aeruginosa. Put plainly: MIC against Gram-negative bacteria: Pseudomonas aeruginosa. Conditions: 5×10^5 CFU/mL. In outline:
as §1

Assay [4] relates to Klebsiella pneumonia. Description: MIC against Gram-negative bacteria: Klebsiella pneumonia. Conditions: 5×10^5 CFU/mL. In short, it runs like this: as §1
Assay [5] deals with Enterobacter cloacae. Put plainly: MIC against Gram-negative bacteria: Enterobacter cloacae. Conditions: 5×10^5 CFU/mL. In short, it runs like this:
as §1

Assay [6] has as its system Aeromonas hydrophila. Description: MIC against Gram-negative bacteria: Aeromonas hydrophila. The conditions noted are these: 5×10^5 CFU/mL. In short, it runs like this: as §1
Assay [7] deals with Citrobacter diversus. Put plainly: MIC against Gram-negative bacteria: Citrobacter diversus. Conditions: 5×10^5 CFU/mL. In short, it runs like this:
as §1

Assay [8] has as its system Moraxella catarrhalis. Put plainly: MIC against Gram-negative bacteria: Moraxella catarrhalis. The conditions noted are these: 5×10^5 CFU/mL. In outline: as §1
Assay [9] relates to Proteus mirabilis. Description: MIC against Gram-negative bacteria: Proteus mirabilis. The conditions noted are these: 5×10^5 CFU/mL. In short, it runs like this:
as §1

Assay [10] concerns Proteus vulgaris. Put plainly: MIC against Gram-negative bacteria: Proteus vulgaris. Conditions: 5×10^5 CFU/mL. In outline:
as §1

In assay [11] the test system is Serratia marcescens. Put plainly: MIC against Gram-negative bacteria: Serratia marcescens. Conditions: 5×10^5 CFU/mL. In outline: as §1
The mark [12] stands for this setting: E. coli BL21, 10 h cultivation at 37° C.
Where [13] appears, read: 10 h cultivation at 37° C., two-fold serial dilution.

The term MIC denotes the lowest concentration that inhibits growth of the organism. A low value points to a more susceptible organism.

With “PRT1420 (GAWDCSVENGGCEHACNAIPGAPRCQCPAGAALQADGRSCT; listed as Homo sapiens)”, in assay [1], the minimum inhibitory concentration (MIC) came out at 12.5 µg/mL. Further, the “MIC against E. coli BL21” value in assay [2] (setting [12]) was determined as 12.5 µg/mL. Moreover, the “MIC against P. aeruginosa” value in assay [3] (Pseudomonas aeruginosa, 10 h cultivation at 37° C.) worked out at 12.5 µg/mL. Moreover, the “MIC against K. pneumonia” value in assay [4] (Klebsiella pneumonia, 10 h cultivation at 37° C.) turned out to be 12.5 µg/mL. Also, in assay [5] (Enterobacter cloacae, 10 h cultivation at 37° C.), the “MIC against E. cloacae” value is 12.5 µg/mL. For the same substance, the “MIC against A. hydrophila” value in [6] (Aeromonas hydrophila, 10 h cultivation at 37° C.) was found to be 25 µg/mL. The “MIC against C. diversus” value in assay [7] (Citrobacter diversus, 10 h cultivation at 37° C.) is 12.5 µg/mL. Further, the “MIC against M. catarrhalis” value in assay [8] (Moraxella catarrhalis, 10 h cultivation at 37° C.) was 25 µg/mL. Also, in [9] (Proteus mirabilis, 10 h cultivation at 37° C.), the “MIC against P. mirabilis” value came to 12.5 µg/mL. Besides, the “MIC against P. vulgaris” value in assay [10] (Proteus vulgaris, 10 h cultivation at 37° C.) stood at 25 µg/mL. The “MIC against S. marcescens” value in assay [11] (Serratia marcescens, 10 h cultivation at 37° C.) came out at 50 µg/mL.

“PRT1148 (NINECSSSPCLHGADCEDHINGYVCKCQPGWSGHHCE; listed as Homo sapiens)” came in with an MIC in [1] of 12.5 µg/mL. In addition, the “MIC E. coli BL21” value in assay [2] (setting [13]) was determined as 25 µg/mL. For the same substance, the “MIC P. aeruginosa” value in assay [3] (setting [13]) was 12.5 µg/mL. Moreover, in assay [4] (setting [13]), the “MIC K. pneumonia” value was 25 µg/mL. Further, the “MIC E. cloacae” value in [5] (setting [13]) stood at 12.5 µg/mL. Further, in assay [6] (setting [13]), the “MIC A. hydrophila” value is 12.5 µg/mL. Further, the “MIC C. diversus” value in assay [7] (setting [13]) came to 12.5 µg/mL. Moreover, in assay [8] (setting [13]), the “MIC M. catarrhalis” value came to 12.5 µg/mL. Further, in [9] (setting [13]), the “MIC P. mirabilis” value amounted to 12.5 µg/mL. In assay [10] (setting [13]), the “MIC P. vulgaris” value worked out at 25 µg/mL. Also, the “MIC S. marcescens” value in [11] (setting [13]) amounted to 12.5 µg/mL.

The substance “PRT881 (AEGPCGERPCENGGICFLLDGHPTCDCSTTGYGGKLCS; listed as Homo sapiens)” returned an MIC in assay [1] of 12.5 µg/mL. For the same substance, the “MIC (μg/mL) E. coli BL21” value in [2] (setting [12]) was found to be 12.5 µg/mL. Also, the “MIC (μg/mL) P. aeruginosa” value in assay [3] (10 h cultivation at 37° C.) was 12.5 µg/mL. In addition, in assay [4] (10 h cultivation at 37° C.), the “MIC (μg/mL) K. pneumonia” value came to 25 µg/mL. Moreover, the “MIC (μg/mL) E. cloacae” value in [5] (10 h cultivation at 37° C.) is 12.5 µg/mL. For the same substance, in [6] (10 h cultivation at 37° C.), the “MIC (μg/mL) A. hydrophila” value worked out at 25 µg/mL. In assay [7] (10 h cultivation at 37° C.), the “MIC (μg/mL) C. diversus” value came out at 12.5 µg/mL. Also, the “MIC (μg/mL) M. catarrhalis” value in assay [8] (10 h cultivation at 37° C.) turned out to be 25 µg/mL. The “MIC (μg/mL) P. mirabilis” value in assay [9] (10 h cultivation at 37° C.) worked out at 12.5 µg/mL. Moreover, the “MIC (μg/mL) P. vulgaris” value in assay [10] (10 h cultivation at 37° C.) worked out at 25 µg/mL. Further, the “MIC (μg/mL) S. marcescens” value in [11] (10 h cultivation at 37° C.) turned out to be 12.5 µg/mL.

For the substance “PRT847 (CDCSPHGALSIPCNSSGKCQCKVGVIGSICDRCQDGYYGFSKNGCLP; listed as Homo sapiens)”, in assay [1], the MIC is 12.5 µg/mL. Moreover, the “MIC (μg/mL) E. coli BL21” value in [2] (setting [12]) is 25 µg/mL. For the same substance, in [3] (10 h cultivation at 37° C.), the “MIC (μg/mL) P. aeruginosa” value came to 12.5 µg/mL. Further, the “MIC (μg/mL) K. pneumonia” value in assay [4] (10 h cultivation at 37° C.) was 12.5 µg/mL. Besides, in [5] (10 h cultivation at 37° C.), the “MIC (μg/mL) E. cloacae” value was 25 µg/mL. The “MIC (μg/mL) A. hydrophila” value in assay [6] (10 h cultivation at 37° C.) worked out at 12.5 µg/mL. Further, the “MIC (μg/mL) C. diversus” value in assay [7] (10 h cultivation at 37° C.) is 25 µg/mL. For the same substance, the “MIC (μg/mL) M. catarrhalis” value in assay [8] (10 h cultivation at 37° C.) was determined as 12.5 µg/mL. The “MIC (μg/mL) P. mirabilis” value in assay [9] (10 h cultivation at 37° C.) is 12.5 µg/mL. For the same substance, the “MIC (μg/mL) P. vulgaris” value in assay [10] (10 h cultivation at 37° C.) stood at 12.5 µg/mL. Besides, the “MIC (μg/mL) S. marcescens” value in assay [11] (10 h cultivation at 37° C.) turned out to be 12.5 µg/mL.

“PRT653 (DVDECEDPQSSCLGGECKNTVGSYQCLCPQGFQLANGTVCE; listed as Homo sapiens)” displayed a minimum inhibitory concentration (MIC) in assay [1] of 25 µg/mL. Further, in [2] (96-well plate, 37° C., 10 h), the “MIC E. coli BL21” value came out at 12.5 µg/mL. Further, the “MIC P. aeruginosa” value in assay [3] (96-well plate, 37° C., 10 h) came out at 25 µg/mL. Further, the “MIC K. pneumonia” value in assay [4] (96-well plate, 37° C., 10 h) was 50 µg/mL. In [5] (96-well plate, 37° C., 10 h), the “MIC E. cloacae” value amounted to 25 µg/mL. In addition, in assay [6] (96-well plate, 37° C., 10 h), the “MIC A. hydrophila” value stood at 12.5 µg/mL. Further, the “MIC C. diversus” value in assay [7] (96-well plate, 37° C., 10 h) came out at 50 µg/mL. In assay [8] (96-well plate, 37° C., 10 h), the “MIC M. catarrhalis” value stood at 25 µg/mL. Further, the “MIC P. mirabilis” value in assay [9] (96-well plate, 37° C., 10 h) is 12.5 µg/mL. Moreover, the “MIC P. vulgaris” value in [10] (96-well plate, 37° C., 10 h) is 50 µg/mL. The “MIC S. marcescens” value in assay [11] (96-well plate, 37° C., 10 h) came out at 25 µg/mL.
